According to patent US8802353B2, “Compound for resist and radiation-sensitive composition specification” (Mitsubishi Gas Chemical Company, Inc., priority 2004, dated 2014):

Tests used:
Type in all cases: physicochemical
[1] = Glass transition temperature, crystallization temperature and quantity of crystallization heat (DSC); settings: for Glass transition temperature Rating / Glass transition temperature / Crystallization temperature: DSC; for Glass transition temperature: 20° C./min, nitrogen gas flow; for Glass transition temperature-Crystallization temperature: rating of the difference; for Crystallization temperature: exothermic peak
Protocol: A sample (about 10 mg) placed in a non-sealed aluminum container was heated to a temperature higher than the melting point at a temperature rising rate of 20° C./min in a nitrogen gas flow (50 ml/min). After being rapidly cooled, the sample was again heated to a temperature higher than the melting point at a temperature rising rate of 20° C./min in a nitrogen gas flow (30 ml/min). After being rapidly cooled, the sample was again heated to 400° C. at a temperature rising rate of 20° C./min in a nitrogen gas flow (30 ml/min), to conduct a differential scanning calorimetric analysis using DSC/TA-50WS manufactured by Shimadzu Corporation. The middle point of the region at which the base line turned discontinuous (the point at which the specific heat reduced to half) was taken as the glass transition temperature (Tg) and the temperature of the exothermic peak after the discontinuous region was taken as the crystallization temperature. The quantity of crystallization heat was determined by the area of the region which was surrounded by the exothermic peak and the base line. The sample was rated A when meeting Tg≧130° C., and rated C when meeting Tg≦130° C. Also, the sample was rated A when meeting (glass transition temperature)−(crystallization temperature)≧70° C., and rated C when meeting (glass transition temperature)-(crystallization temperature)<70° C.

[2] = Solubility in safety solvent; settings: 23° C.; PGMEA, PGME, ethyl lactate, butyl acetate, methyl 3-methoxypropionate, ethyl propionate
Protocol: The solubility of the compound B was tested at 23° C. using propylene glycol monomethyl ether acetate, propylene glycol monomethyl ether, ethyl lactate, butyl acetate, methyl 3-methoxypropionate and ethyl propionate. The sample was rated A when dissolved in any one of the above solvents in a concentration of 5 wt % or more, rated B when dissolved in a concentration of 0.1 to 5 wt %, and rated C when dissolved only in a concentration of less than 0.1 wt %.

[3] = Film-forming property (spin-coated film on silicon wafer); parameters: key: rated C when the film was clouded or its surface was roughened; rated B when the film was partly clouded or roughened; rated A when the film had a good surface flatness without causing clouding; settings: 3% by weight solution spin-coated, 110° C. 3 min
Source text: A 3% by weight solution of the compound B or a mixture (compound B and polyphenol A) in PGME/PE (1/2 by weight) or acetone when not dissolved in PGME/PE was spin-coated on a silicon wafer which had been surface-treated with a silane coupling agent, to form a resist film with a thickness of about 0.05 μm.

[4] = Adhesion to silicon substrate; parameters: key: rated A when the film was not peeled from the silicon wafer; rated C when peeled off; settings: silicon wafer surface-treated with silane coupling agent
Protocol: The resist film formed in (2-2) was tested for its adhesion to the silicon wafer which was surface-treated with a silane coupling agent. The sample was rated A when the film was not peeled from the silicon wafer, and rated C when peeled off.

| Structure (SMILES) | Glass transition temperature Rating [1] | Glass transition temperature [1] [°C] | Glass transition temperature-Crystallization temperature [1] | Crystallization temperature [1] [°C] | Solubility to safety solvent [2] | film-forming property [3] | Adhesion to silicon substrate [4] |
| --- | --- | --- | --- | --- | --- | --- | --- |
| Cc1cc(C(c2ccc3cc(C(c4cc(C)c(O)cc4C)c4cc(C)c(O)cc4C)ccc3c2)c2cc(C)c(O)cc2C)c(C)cc1O [Compound 101, tetrakis(2,5-xylenol)-2,6-naphthalenedialdehyde] | A (rated A when meeting Tg≧130° C.) | 144 | A (rated A when meeting (glass transition temperature)−(crystallization temperature)≧70° C.) | – | – | – | – |
| Cc1cc(C(c2ccc3cc(C(c4cc(C)c(O)c(C)c4C)c4cc(C)c(O)c(C)c4C)ccc3c2)c2cc(C)c(O)c(C)c2C)c(C)c(C)c1O [Compound 102] | A (rated A when meeting Tg≧130° C.) | 136 | A (rated A when meeting (glass transition temperature)−(crystallization temperature)≧70° C.) | – | – | – | – |
| Cc1cc(C(c2ccc3ccc(C(c4cc(C)c(O)cc4C)c4cc(C)c(O)cc4C)cc3c2)c2cc(C)c(O)cc2C)c(C)cc1O [Compound 104] | A (rated A when meeting Tg≧130° C.) | 145 | A (rated A when meeting (glass transition temperature)−(crystallization temperature)≧70° C.) | 287 | – | – | – |
| Cc1cc(C(c2ccc(-c3cccc(-c4ccc(C(c5cc(C)c(O)cc5C)c5cc(C)c(O)cc5C)cc4)c3)cc2)c2cc(C)c(O)cc2C)c(C)cc1O [Compound 106] | A (rated A when meeting Tg≧130° C.) | 137 | A (rated A when meeting (glass transition temperature)−(crystallization temperature)≧70° C.) | – | – | – | – |
| Cc1cc(C(c2ccc(-c3ccc(-c4ccc(C(c5cc(C)c(O)cc5C)c5cc(C)c(O)cc5C)cc4)cc3)cc2)c2cc(C)c(O)cc2C)c(C)cc1O [Compound 107] | A (rated A when meeting Tg≧130° C.) | 147 | A (rated A when meeting (glass transition temperature)−(crystallization temperature)≧70° C.) | – | – | – | – |
| CCOC(C)Oc1cc(C)c(C(c2ccc3cc(C(c4cc(C)c(O)cc4C)c4cc(C)c(O)cc4C)ccc3c2)c2cc(C)c(O)cc2C)cc1C (stereo not shown) [Compound 109] | – | – | – | – | A (rated A when dissolved in any one of the above solvents in a concentration of 5 wt % or more) | A | A |
| Cc1cc(C(c2ccc3cc(C(c4cc(C)c(O)cc4C)c4cc(C)c(OC(C)OC5CCCCC5)cc4C)ccc3c2)c2cc(C)c(O)cc2C)c(C)cc1O (stereo not shown) [Compound 110] | – | – | – | – | A (rated A when dissolved in any one of the above solvents in a concentration of 5 wt % or more) | A | A |
| CCOC(C)Oc1c(C)cc(C(c2ccc3cc(C(c4cc(C)c(O)c(C)c4C)c4cc(C)c(O)c(C)c4C)ccc3c2)c2cc(C)c(O)c(C)c2C)c(C)c1C (stereo not shown) [Compound 111] | – | – | – | – | A (rated A when dissolved in any one of the above solvents in a concentration of 5 wt % or more) | A | A |
| Cc1cc(C(c2ccc3cc(C(c4cc(C)c(O)c(C)c4C)c4cc(C)c(OC(C)OC5CCCCC5)c(C)c4C)ccc3c2)c2cc(C)c(O)c(C)c2C)c(C)c(C)c1O (stereo not shown) [Compound 112] | – | – | – | – | A (rated A when dissolved in any one of the above solvents in a concentration of 5 wt % or more) | A | A |
| Cc1cc(O)c(C(C)C)cc1C(c1ccc2cc(C(c3cc(C(C)C)c(O)cc3C)c3cc(C(C)C)c(OC(C)OC4CCCCC4)cc3C)ccc2c1)c1cc(C(C)C)c(O)cc1C (stereo not shown) [Compound 113] | – | – | – | – | A (rated A when dissolved in any one of the above solvents in a concentration of 5 wt % or more) | A | A |
| Cc1cc(C(c2ccc3ccc(C(c4cc(C)c(O)c(C)c4C)c4cc(C)c(OC(C)OC5CCCCC5)c(C)c4C)cc3c2)c2cc(C)c(O)c(C)c2C)c(C)c(C)c1O (stereo not shown) [Compound 114] | – | – | – | – | A (rated A when dissolved in any one of the above solvents in a concentration of 5 wt % or more) | A | A |
| Cc1cc(C(c2ccc(-c3cccc(-c4ccc(C(c5cc(C)c(O)cc5C)c5cc(C)c(OC(C)OC6CCCCC6)cc5C)cc4)c3)cc2)c2cc(C)c(O)cc2C)c(C)cc1O (stereo not shown) [Compound 115] | – | – | – | – | A (rated A when dissolved in any one of the above solvents in a concentration of 5 wt % or more) | A | A |
| Cc1cc(C(c2ccc(-c3ccc(-c4ccc(C(c5cc(C)c(O)cc5C)c5cc(C)c(OC(C)OC6CCCCC6)cc5C)cc4)cc3)cc2)c2cc(C)c(O)cc2C)c(C)cc1O (stereo not shown) [Compound 116] | – | – | – | – | A (rated A when dissolved in any one of the above solvents in a concentration of 5 wt % or more) | A | A |
| Cc1cc(C(c2cc(C(c3cc(C)c(OC(=O)OC(C)(C)C)c(C)c3C)c3cc(C)c(OC(=O)OC(C)(C)C)c(C)c3C)cc(C(c3cc(C)c(OC(=O)OC(C)(C)C)c(C)c3C)c3cc(C)c(OC(=O)OC(C)(C)C)c(C)c3C)c2)c2cc(C)c(OC(=O)OC(C)(C)C)c(C)c2C)c(C)c(C)c1OC(=O)OC(C)(C)C [Compound 117] | – | – | – | – | A (rated A when dissolved in any one of the above solvents in a concentration of 5 wt % or more) | A | A |
| Cc1cc(C(c2ccc3cc(C(c4cc(C)c(O)cc4C)c4cc(C)c(OC(C)OC5CCCCC5)cc4C)ccc3c2)c2cc(C)c(O)cc2C)c(C)cc1O (stereo not shown) [Compound 118] | – | – | – | – | A (rated A when dissolved in any one of the above solvents in a concentration of 5 wt % or more) | A | A |
| Cc1cc(C(c2cc(C(c3cc(C)c(O)c(C)c3C)c3cc(C)c(O)c(C)c3C)cc(C(c3cc(C)c(O)c(C)c3C)c3cc(C)c(OC(C)OC4CCCCC4)c(C)c3C)c2)c2cc(C)c(O)c(C)c2C)c(C)c(C)c1O (stereo not shown) [Compound 119] | – | – | – | – | A (rated A when dissolved in any one of the above solvents in a concentration of 5 wt % or more) | A | A |
| CC(C)(C)OC(=O)Oc1ccc(C(C)(C)c2ccc(OC(=O)OC(C)(C)C)cc2)cc1 [Compound 201, reference compound] | – | – | – | – | C (rated C when dissolved only in a concentration of less than 0.1 wt %) | – | – |
| CC(C)(C)OC(=O)Oc1ccc(C2(c3ccc(OC(=O)OC(C)(C)C)cc3)CCCCC2)cc1 [Compound 202, reference compound] | – | – | – | – | C (rated C when dissolved only in a concentration of less than 0.1 wt %) | – | – |
| CC(C)(C)OC(=O)Oc1ccc(C(c2ccc(OC(=O)OC(C)(C)C)cc2)c2ccc(OC(=O)OC(C)(C)C)cc2)cc1 [Compound 203, reference compound] | – | – | – | – | C (rated C when dissolved only in a concentration of less than 0.1 wt %) | A | A |
| CC(C)(C)OC(=O)Oc1ccc(-c2cc(-c3ccc(OC(=O)OC(C)(C)C)cc3)cc(-c3ccc(OC(=O)OC(C)(C)C)cc3)c2)cc1 [Compound 204, reference compound] | – | – | – | – | A (rated A when dissolved in any one of the above solvents in a concentration of 5 wt % or more) | B | A |
| Cc1cc(C(C)(c2ccc(O)c(C)c2)c2ccc3ccccc3c2)ccc1O [Compound 206, 1-(2-naphthyl)-1,1-bis(3-methyl-4-hydroxyphenyl)ethane, reference compound] | C (rated C when meeting Tg≦130° C.) | 72 | A (rated A when meeting (glass transition temperature)−(crystallization temperature)≧70° C.) | – | – | – | – |
| Oc1ccc(C2(c3ccc(O)cc3)c3ccccc3-c3ccccc32)cc1 [Compound 209, bisphenol fluorene, reference compound] | C (rated C when meeting Tg≦130° C.) | 101 | C (rated C when meeting (glass transition temperature)-(crystallization temperature)<70° C.) | 157.7 | – | – | – |
